These results are taken from patent EP0314154A2, “Tetrahydrofuro- and thieno(2,3-c)pyridines, their use as a medicament and process for their preparation” (BOEHRINGER INGELHEIM KG, priority 1987, dated 1989).

For orientation: Ki means a dissociation constant, usually derived from enzyme kinetics or from competition with a known ligand.

The target of one experiment is T1, Rezeptorsubtyp M₁ (Rattus norvegicus, UniProt P08482).
T1 construct: HIPPOCAMPUS; from tissue; host or cells: hippocampus
T1 sequence (P08482 1-460): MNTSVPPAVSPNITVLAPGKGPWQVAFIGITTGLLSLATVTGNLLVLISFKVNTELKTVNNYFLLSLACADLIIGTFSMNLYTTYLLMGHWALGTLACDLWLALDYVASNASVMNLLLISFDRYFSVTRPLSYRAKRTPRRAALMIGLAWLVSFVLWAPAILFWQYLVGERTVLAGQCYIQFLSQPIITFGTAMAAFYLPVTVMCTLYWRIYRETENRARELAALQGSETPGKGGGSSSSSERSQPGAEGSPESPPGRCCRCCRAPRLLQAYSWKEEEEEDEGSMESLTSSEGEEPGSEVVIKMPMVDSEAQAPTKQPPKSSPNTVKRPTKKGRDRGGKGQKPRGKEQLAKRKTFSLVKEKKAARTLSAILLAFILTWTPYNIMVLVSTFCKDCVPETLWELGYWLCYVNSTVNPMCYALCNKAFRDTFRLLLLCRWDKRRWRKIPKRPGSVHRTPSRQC
Kind of experiment: Muscarinic receptor binding study, M₁ subtype, hippocampus, [³H]pirenzepine. The settings on record: Organ HIPPOCAMPUS, [³H]Ligand Pirenzepin, kind of constant not stated. The source says:
(§1) Die Rezeptorbindungsstudien im muskarinisch cholinergen System wurden an den drei Rezeptorsubtypen gemäß den untenstehenden Literaturzitaten ausgeführt (Watson, M., H. I. Yamamura and W.R. Roeske 1983, Life Sci. 32, 3001-3011; Hammer, R., C.P. Berrie, N.I.M. Birdsall, A.S.V. Burgen and E.C. Hulme 1980, Nature 283, 90-92; Hammer, R., E. Giraldo, G.B. Schiavi, E. Monferini and H. Ladinsky 1986, Life Sci. 38, 1653-1662;).

The target in the next experiment is T2, Rezeptorsubtyp M₂ (Rattus norvegicus, UniProt P10980).
T2 construct: Herz; from tissue; host or cells: heart
T2 sequence (P10980 1-466): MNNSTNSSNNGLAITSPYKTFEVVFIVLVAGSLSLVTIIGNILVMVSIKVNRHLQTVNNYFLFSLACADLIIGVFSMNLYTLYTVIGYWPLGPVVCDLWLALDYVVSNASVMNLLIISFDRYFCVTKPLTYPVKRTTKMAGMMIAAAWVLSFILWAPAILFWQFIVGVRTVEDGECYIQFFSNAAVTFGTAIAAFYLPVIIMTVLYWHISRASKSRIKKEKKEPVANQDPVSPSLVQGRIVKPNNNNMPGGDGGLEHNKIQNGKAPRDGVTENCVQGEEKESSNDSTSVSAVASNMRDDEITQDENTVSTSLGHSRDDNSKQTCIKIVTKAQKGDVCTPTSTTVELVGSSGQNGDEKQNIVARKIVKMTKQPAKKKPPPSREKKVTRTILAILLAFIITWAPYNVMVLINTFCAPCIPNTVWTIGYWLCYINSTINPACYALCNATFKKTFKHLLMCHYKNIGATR
Kind of experiment: Muscarinic receptor binding study, M₂ subtype, heart, [³H]N-methylscopolamine. The settings on record: Organ Herz, [³H]Ligand N-Methylscopolamin, kind of constant not stated.
From the text: as §1

In another experiment the target is T3, Rezeptorsubtyp M₃ (Rattus norvegicus, UniProt P08483).
T3 construct: Tränendrüse; from tissue; host or cells: lacrimal gland
As to the kind of experiment: Muscarinic receptor binding study, M₃ subtype, lacrimal gland, [³H]N-methylscopolamine. The settings on record: Organ Tränendrüse, [³H]Ligand N-Methylscopolamin, kind of constant not stated.
From the text: as §1

Another experiment deals with Agonisten Bindungsstelle. As to the kind of experiment: [³H]cis-methyldioxolane binding study (muscarinic agonist binding site). The settings on record: [³H]Ligand cis-Methyldioxolan. The source says: Die erfindungsgemäßen Verbindungen verdrängen den muscarinen Agonisten mit hoher Affinität von der Agonisten Bindungsstelle. Die Durchführung der [3H]cis-Methyldioxolan-Bindungsstudien erfolgen analog zu A Closs et al., Naunyn Schmiedebergs Arch. Pharmacol 335, 372-377 (1987). Die Ergebnisse sind in Tabelle Ia zusammengestellt Tabelle Ia: […]

Experiment [1] can be described thus: EEG of the awake rabbit (arousal reaction). Format: in vivo. The settings on record: waches Kaninchen. The source says: Die erfindungsgemäßen tertiären Amine der allgemeinen Formel I zeigen Affinitäten zu muscarinen Rezeptoren im ZNS und im Tierexperiment muscarine agonistische Eigenschaften im ZNS.
Experiment [2] is described as follows: Haloperidol-induced dyskinesias in haloperidol-sensitised monkeys. It counts as in vivo. The settings on record: gegen Haloperidol sensibilisierte Affen; Dosis < 1 mg/kg i.m.

Molecules are shown by their SMILES.

T3 sequence (P08483 whole entry): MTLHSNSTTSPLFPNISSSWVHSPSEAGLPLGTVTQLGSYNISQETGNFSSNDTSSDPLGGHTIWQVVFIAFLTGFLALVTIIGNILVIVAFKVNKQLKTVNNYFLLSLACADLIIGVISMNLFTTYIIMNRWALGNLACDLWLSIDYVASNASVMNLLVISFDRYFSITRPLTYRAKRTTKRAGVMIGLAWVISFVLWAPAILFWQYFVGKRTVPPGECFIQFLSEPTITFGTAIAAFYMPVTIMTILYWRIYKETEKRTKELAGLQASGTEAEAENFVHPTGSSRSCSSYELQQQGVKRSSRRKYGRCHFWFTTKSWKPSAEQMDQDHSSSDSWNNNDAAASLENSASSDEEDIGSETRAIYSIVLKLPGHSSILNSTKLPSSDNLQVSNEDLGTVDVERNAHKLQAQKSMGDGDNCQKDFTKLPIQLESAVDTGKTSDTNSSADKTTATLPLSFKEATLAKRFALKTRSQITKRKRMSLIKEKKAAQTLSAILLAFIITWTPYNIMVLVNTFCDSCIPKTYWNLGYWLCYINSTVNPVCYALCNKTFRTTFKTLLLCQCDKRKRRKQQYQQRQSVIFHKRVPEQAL

On to `CCN1CCc2c(oc(C)c2C)C1` [X=O, R₁=CH₃, R₂=CH₃, R₃=H, R₄=Et, R₅=H], for which the Rezeptorbindung on Rezeptorsubtyp M₁ and at Rezeptorsubtyp M₂ was 3,2 µMol each time.
Consider `Cc1cc2c(o1)CN(C)CC2` [X=O, R₁=CH₃, R₂=H, R₃=H, R₄=CH₃, R₅=H, 2,6-Dimethyl-4,5,6,7-tetrahydrofuro[2,3-c]pyridin], for which the results for the Rezeptorbindung at Rezeptorsubtyp M₁, on Rezeptorsubtyp M₂ and at Rezeptorsubtyp M₃ were 8,3 µMol, 6,5 µMol and 24,2 µMol, respectively. The compound also displayed a Ki at Agonisten Bindungsstelle of 0.081 µM. The “Arousal-Reaktion im EEG” value in experiment [1] (1 mg/kg i.v.) and in experiment [1] (3 mg/kg p.o.) was “eine für Cholinomimetica typische Arousal-Reaktion” in each case.
In the case of `CCc1cc2c(o1)CN(C)CC2` [X=O, R₁=Et, R₂=H, R₃=H, R₄=CH₃, R₅=H, 2-Ethyl-6-methyl-4,5,6,7-tetrahydro-furo[2,3-c]pyridin], the figures for the Rezeptorbindung on Rezeptorsubtyp M₁ and on Rezeptorsubtyp M₂ were 1,4 µMol and 1,0 µMol, respectively. Further, the affinity on Agonisten Bindungsstelle corresponds to a Ki of 0.052 µM.
At Agonisten Bindungsstelle, `CCCc1cc2c(o1)CN(C)CC2` [X=O, R₁=N-Pr, R₂=H, R₃=H, R₄=CH₃, R₅=H, 6-Methyl-2-n-propyl-4,5,6,7,-tetrahydro-furo[2.3-c]pyridin] had a Ki of 0.053 µM.
With `CC(C)Cc1cc2c(o1)CN(C)CC2` [X=O, R₁=iso-Bu, R₂=H, R₃=H, R₄=CH₃, R₅=H, 6-Methyl-2-iso-butyl-4,5,6,7,-tetrahydro-furo[2.3-c]pyridin], the Rezeptorbindung on Rezeptorsubtyp M₁ was 0,8 µMol; at Rezeptorsubtyp M₂ it was 2,5 µMol; on Rezeptorsubtyp M₃ it was 2,7 µMol.
For the compound `CCCCc1cc2c(o1)CN(C)CC2` [X=O, R₁=n-Bu, R₂=H, R₃=H, R₄=CH₃, R₅=H, 6-Methyl-2-n-butyl-4,5,6,7,-tetrahydro-furo[2.3-c]pyridin], the Rezeptorbindung at Rezeptorsubtyp M₁ is given as 0,5 µMol; at Rezeptorsubtyp M₂, 0,7 µMol. Besides, the affinity at Agonisten Bindungsstelle corresponds to a Ki of 0.039 µM.
As to `CCCc1cc2c(o1)CNCC2` [X=O, R₁=n-Pr, R₂=H, R₃=H, R₄=H, R₅=H], on Agonisten Bindungsstelle, the affinity, expressed as Ki, was 0.16 µM.
On to `Cc1cc2c(s1)CN(C)CC2C` (stereo not drawn) [X=S, R₁=CH₃, R₂=H, R₃=H, R₄=CH₃, R₅=CH₃, 2,4,6-Trimethyl-4,5,6,7-tetrahydrothieno[2,3-c]pyridin], for which the results for the Rezeptorbindung at Rezeptorsubtyp M₁, on Rezeptorsubtyp M₂ and on Rezeptorsubtyp M₃ were 5,8 µMol, 8,4 µMol and 34,1 µMol, respectively.
Take `Cc1cc2c(s1)CN(C)CC2` [X=S, R₁=CH₃, R₂=H, R₃=H, R₄=CH₃, R₅=H, 2,6-Dimethyl-4,5,6,7-tetrahydrothieno[2,3-c]pyridin]: the results for the Rezeptorbindung at Rezeptorsubtyp M₁, on Rezeptorsubtyp M₂ and at Rezeptorsubtyp M₃ were 7,5 µMol, 14 µmol and 53,1 µMol, respectively. Moreover, the “Dyskinesien zusammen mit unterschwelligen Dosen (Haloperidol)” value in experiment [2] is listed as “lösen zusammen mit unterschwelligen Dosen Dyskinesien aus”. For the same compound, the “durch Haloperidol hervorgerufene Dyskinesien” value in experiment [2] is on record as “verstärken”.
Turning to `CCN1CCc2cc(C)sc2C1` [X=S, R₁=CH₃, R₂=H, R₃=H, R₄=Et, R₅=H, 6-Ethyl-2-methyl-4,5,6,7-tetrahydrothieno[2,3-c]pyridin], the Rezeptorbindung is listed as 2,2 µMol on Rezeptorsubtyp M₁, 4,5 µMol at Rezeptorsubtyp M₂ and 11,4 µMol on Rezeptorsubtyp M₃.
Regarding `Cc1cc2c(s1)CNCC2` [X=S, R₁=CH₃, R₂=H, R₃=H, R₄=H, R₅=H, 2-Methyl-4,5,6,7,-tetrahydro-thieno[2,3-c]pyridin], the Rezeptorbindung was 39,6 µMol on Rezeptorsubtyp M₁, >100 µmol on Rezeptorsubtyp M₂ and >100 µmol on Rezeptorsubtyp M₃.
As to `CN1CCc2ccsc2C1` [X=S, R₁=H, R₂=H, R₃=H, R₄=CH₃, R₅=H, 6-Methyl-4,5,6,7,-tetrahydro-thieno[2,3-c]pyridin], the Rezeptorbindung is 36,3 µMol on Rezeptorsubtyp M₁, >100 µmol on Rezeptorsubtyp M₂ and >100 µmol at Rezeptorsubtyp M₃.
